# From US20240307351A1, “AGENT FOR ANTI-AGING OR FOR CELLULAR REJUVENATION” (TOHOKU UNIVERSITY, priority 2022, published 2024)
# What was measured:
# [1] = test system: various SIRTs (SIRT1, SIRT2, SIRT3, SIRT5, SIRT6, and SIRT7); assay: Expression levels of various SIRTs in HEI-OC1 cells by Western blotting; type: cell-based, mouse; details: HEI-OC1 cell line, 1, 3, 10 or 30 μM, 24 hours, compared with absence of MA5 (0.1% DMSO)
# Protocol: HEI-OC1 cells (mouse inner ear cell line) at 1×10^6 cell/dish were seeded and cultured in a dish containing 10 mL of a culture solution (low-glucose-containing DMEM medium (glucose concentration of 1.0 g/dL) to which 10 wt. % of FBS was added). After one day, 0.1% DMSO as a solvent of the compound or Compound #5 at various concentrations (1 μM, 3 μM, 10 μM, or 30 μM) was added, and the mixture was cultured for 24 hours ([Compound #5 addition group]). After completion of culture, the cells were collected, disrupted by a typical method, and the expression levels of various SIRTs (SIRT1, SIRT2, SIRT3, SIRT5, SIRT6, and SIRT7) in the cells were analyzed by Western blotting (see FIGS. 1-1 and 1-2).
# [2] = test system: FABP4 Gene; assay: Quantitative PCR of FABP4 Gene in brown adipocytes of Ndufs4−/− mice; type: in vivo, mouse; details: 10 mg/day per kg, 50 days, vs CMC administration group
# Protocol: Compound #5 was administered to NDUFS4 homozygous knockout mice (Ndufs4−/−mice) (4 weeks old) at a dose of 10 mg/day per kg of mouse weight for 50 days ([Compound #5 administration group]).
# In addition, CMC (carboxymethylcellulose) was administered to NDUFS4 homozygous knockout mice (Ndufs4−/−mice) at a dose of 10 mg/day per kg of mouse weight for 50 days ([CMC administration group; Control group]).
# Brown adipocytes were collected from the mice of [Compound #5 administration group] and [CMC administration group]. Total RNA was extracted from the brown adipocytes, and cDNA was prepared therefrom and used for measurement of mRNA expression level. The measurement was performed by a quantitative PCR method. The expression level of mRNA was determined with a relative ratio to β-actin used as an internal standard. As primers and probes, the following commercially available products (manufactured by Thermo Fisher Scientific Inc., and the like) were used. • Mouse Acts (actin beta, β-actin) Mm02619580_g1, Cat #4331182 • Mouse Ucp1 (uncoupling protein 1), Mm00494069_m1, Cat #4331182 • Mouse Pparg (PPARγ, peroxisome proliferator activated receptor gamma), Mm00440945_m1, Cat #4331182p • Mouse Fabp4 (fatty acid binding protein 4), Mm00445880_m1, Cat #4331182
# [3] = test system: C57BL6 mice (12 weeks old); assay: Treadmill running test of young mice; type: in vivo, mouse; details: oral, 2 months; for decrease in the running time on a treadmill: young C57BL6 mice (12 weeks old); for time to exhaustion: young C57BL6 mice, compared to Vehicle group
# Protocol: Water-suspended Compound #5 was orally administered to C57BL6 mice (12 weeks old) at a dose of 50 mg/kg/day per kg of mouse weight for 2 months ([MA5 high dose addition group], n=5).
# Water-suspended Compound #5 was orally administered to C57BL6 mice (12 weeks old) at a dose of 10 mg/kg/day per kg of mouse weight for 2 months ([MA5 low dose addition group], n=5).
# In addition, water was orally administered to C57BL6 mice (12 weeks old) for 2 months ([Vehicle group], n=5).
# [4] = test system: cochlear cells of the inner ear of Ndufs4 knockout mice; assay: RNA-Seq, pathway and ChIP-Atlas analysis of cochlear cells of Ndufs4 knockout mice; type: in vivo, mouse; details: oral, 50 mg/kg/day, 2 weeks
# Protocol: Water-suspended Compound #5 was orally administered to Ndufs4 (NADH-ubiquinone oxidoreductase subunit 4) knockout mice (6 weeks old) at a dose of 50 mg/kg/day per kg of mouse weight for 2 weeks ([MA5 addition group], n=5).
# In addition, water was orally administered to Ndufs4 knockout mice (6 weeks old) for 2 weeks ([Vehicle group], n=5).
# RNA sequence (RNA-Seq) analysis was performed on cochlear cells of the inner ear of Ndufs4 knockout mice of [MA5 addition group] and [Vehicle group] described above, and genes whose expression levels changed (increased or decreased) in [MA5 addition group] as compared with [Vehicle group] were identified. Based on the names of the genes, pathway analysis was performed on genes whose expression has varied in the inner ear cells of the Ndufs4 knockout mice in [MA5 addition group].
# The results of the names of the genes whose expression levels increased or decreased in the Ndufs4 knockout mice of [MA5 addition group] as compared with the Ndufs4 knockout mice of [Vehicle group] in the RNA sequence (RNA-Seq) analysis were used to perform integrated analysis with ChIP-Atlas to investigate transcription factors possibly related to these genes.
# [5] = test system: Mouse inner ear cells HEI-OC1; assay: RNA-Seq and ChIP-Atlas analysis of HEI-OC1 cells; type: cell-based; details: 10 µM
# Protocol: Mouse inner ear cells HEI-OC1 were cultured in 10% FBS-containing DMEM medium containing 10 µM of Compound #5 (dissolved in 0.1% DMSO) ([MA5 addition group], n=5).
# In addition, mouse inner ear cells HEI-OC1 were cultured in 10% FBS-containing DMEM medium containing […] 0.1% DMSO ([Vehicle group], n=5).
# RNA sequencing (RNA-Seq) analysis was performed on the HEI-OC1 cells in [MA5 addition group] and [Vehicle group] to identify genes whose expression levels changed (increased or decreased) in [MA5 addition group] as compared with [Vehicle group]. Using the results of these gene names, integrated analysis with ChIP-Atlas was performed to investigate transcription factors possibly related to these genes. The results of ChIP enrichment analysis (ChEA) are shown in Table 7, and the results of analysis by ENCODE and ChEA consensus TFs from ChIP-X are shown in Table 8.
# [6] = Plasma metabolite analysis by CE-TOFMS in α-Klotho gene-deficient mice; type: in vivo; details: oral, 10 mg/kg mouse weight/day, 28 to 60 days old
# Protocol: Water-suspended Compound #5 was orally administered to α-Klotho gene-deficient mice (28 days old) at a dose of 10 mg/kg mouse weight/day until 60 days old (Klotho homo KO mouse administration group, n=2).
# In addition, water was orally administered to wild-type mice (28 days old) and α-Klotho gene-deficient mice (28 days old) until 60 days old (n=2 for each of the wild-type non-administrated group and the Klotho homo KO mouse non-administrated group).
# Plasma was prepared from each 60-day-old mouse, and the effect of administration of Compound #5 on plasma metabolites was subjected to target analysis (comprehensive analysis) by CE-TOFMS (manufactured by Human Metabolome Technologies, Inc.).
smiles,measurement,setting,value
"O=C(CC(C(=O)O)c1c[nH]c2ccccc12)c1ccc(F)cc1F (centres unmarked) [Compound #5, 4-(2,4-difluorophenyl)-2-(1H-indole-3-yl)-4-oxo-butanoic acid]",expression levels of various SIRTs in the cells,[1],increased
same,expression of FABP4 Gene,[2],higher
same,decrease in the running time on a treadmill,[3]; 10 mg/kg/day (low dose),inhibited
same,decrease in the running time on a treadmill,[3]; 50 mg/kg/day (high dose),inhibited
same,time to exhaustion,[3]; 10 mg/kg/day (low dose),significantly improved
same,time to exhaustion,[3]; 50 mg/kg/day (high dose),significantly improved
same,IGF1 signaling pathway (pathway analysis),[4],enhanced
same,transcription factors related to genes whose expression increased (ChIP-Atlas),[4]; Table 5,"SOX2 and MYC, which are reprogramming factors necessary for the production of iPS cells, and POU2F1 (OCT1)"
same,"transcription factors related to genes whose expression increased (ChIP enrichment analysis, ChEA)",[5]; Table 7,"SUZ^12 and EZH2, which are factors constituting polycomb repressive complex-2 (PRC2), which methylates histones, and SOX2"
same,transcription factors related to genes whose expression increased (ENCODE and ChEA consensus TFs from ChIP-X),[5]; Table 8,"PPARG (peroxisome proliferator-activated receptor γ), which is a longevity-related gene, MYC, which is one of the reprogramming factors necessary for the production of iPS cells, TRIM28"
same,spermidine in plasma,[6],increased
